Experimental data taken from ChEMBL document CHEMBL4651402, “Screening of ~5500 FDA-approved drugs and clinical candidates for anti-SARS-CoV-2 activity” (2021).
pIC50: −log10 of the molar value.

Test system: SARS-CoV-2
Assay: microbe, parasite or virus in culture
Conditions: Severe acute respiratory syndrome coronavirus 2, Vero C1008, 48 h; for IC50: read-out: pIC50 (converted)

Row | SMILES | pIC50 | IC50
1 | COc1ccc(-c2ccc(Cn3c(CC(C)(C)C(=O)O)c(SC(C)(C)C)c4cc(OCc5ccccn5)ccc43)cc2)cn1 | < 4.70 | > 20 µM
2 | CC(=O)OC1C[C@@]2(C)[C@@H](C[C@@H](O)C3[C@]2(C)CC[C@H]2[C@H](C)[C@H](O)CC[C@]32C)/C1=C(\CCC=C(C)C)C(=O)O (some centres not stated) | < 4.70 | > 20 µM
3 | CC(C)(C)C#Cc1cc(N(C(=O)[C@H]2CC[C@H](C)CC2)[C@H]2CC[C@@H](O)CC2)c(C(=O)O)s1 | < 4.70 | > 20 µM
4 | CNC(=O)Oc1ccc2c(c1)[C@]1(C)CCN(C)[C@@H]1N2C [PHYSOSTIGMINE] | < 4.70 | > 20 µM
5 | CCOC(=O)c1ccc(C#Cc2ccc3c(c2)C(C)(C)CCS3)nc1 [TAZAROTENE] | < 4.70 | > 20 µM
6 | COC(=O)c1cnc2n1CCc1ccccc1C2=C1CCN(CCc2ccc(OCc3ccc4ccccc4n3)cc2)CC1 | < 4.70 | > 20 µM
7 | COc1cccc2c1C(=O)c1c(O)c3c(c(O)c1C2=O)C[C@@](O)(C(C)=O)C[C@@H]3O[C@H]1C[C@H](N)[C@H](O)[C@H](C)O1 [DAUNORUBICIN] | < 4.70 | > 20 µM
8 | C=C(NC(=O)C(=C)NC(=O)c1csc(C2=N[C@H]3c4csc(n4)[C@H]4NC(=O)c5csc(n5)[C@H]([C@@](C)(O)[C@@H](C)O)NC(=O)[C@H]5CSC(=N5)/C(=C\C)NC(=O)[C@H]([C@@H](C)O)NC(=O)c5csc(n5)[C@]3(CC2)NC(=O)[C@H](C)NC(=O)C(=C)NC(=O)[C@H](C)NC(=O)[C@H](C(C)CC)N[C@@H]2C=Cc3c([C@H](C)O)cc(nc3[C@H]2O)C(=O)O[C@@H]4C)n1)C(N)=O (some centres not stated) | < 4.70 | > 20 µM
9 | CC(C=NNC(=N)N)=NNC(=N)N | < 4.70 | > 20 µM
10 | NC(=O)N1c2ccccc2CC(=O)c2ccccc21 [OXCARBAZEPINE] | < 4.70 | > 20 µM
11 | NCc1c[nH]c(=S)n1[C@H]1CCc2c(F)cc(F)cc2C1 | < 4.70 | > 20 µM
12 | C[C@]12C=CC(=O)C=C1CC[C@@H]1[C@@H]2[C@@H](O)C[C@@]2(C)[C@H]1CC[C@]2(O)C(=O)CO [PREDNISOLONE] | < 4.70 | > 20 µM
13 | C[C@]12C=CC(=O)C=C1CCC1C2C(O)C[C@@]2(C)C1CC[C@]2(O)C(=O)COC(=O)c1cccc(S(=O)(=O)O)c1 (some centres not stated) | < 4.70 | > 20 µM
14 | COc1cc(C(=O)O)cc(OC)c1O [SYRINGIC ACID] | < 4.70 | > 20 µM
15 | COc1cc(C(=O)C(=O)N(C)[C@@H](Cc2ccc(Cl)cc2)C(=O)N(Cc2ccccc2)C(CCc2ccncc2)CCc2ccncc2)cc(OC)c1OC [TIMCODAR] | < 4.70 | > 20 µM
16 | Nc1ncnc2c1ncn2C1CC(O)C(CO)O1 (configuration not stated) | < 4.70 | > 20 µM
17 | O=C1CCCN1CC#CCN1CCCC1 [OXOTREMORINE] | < 4.70 | > 20 µM
18 | O=[N+]([O-])c1ccc(O)c2ncccc12 [NITROXOLINE] | < 4.70 | > 20 µM
19 | CC12CCC3C(CC[C@H]4C[C@H](Cl)CCC34C)C1CCC2=O (some centres not stated) | < 4.70 | > 20 µM
20 | CCCCCCCN(CC)CCCC(O)c1ccc(NS(C)(=O)=O)cc1 (configuration not stated) [IBUTILIDE] | < 4.70 | > 20 µM
21 | CC(C)NCC(O)c1ccc(O)c(NS(C)(=O)=O)c1 (configuration not stated) [SOTERENOL] | < 4.70 | > 20 µM
22 | O=C(O)c1cccc(-c2cccc(NCCNC[C@H](O)c3cccc(Cl)c3)c2)c1 [SOLABEGRON] | < 4.70 | > 20 µM
23 | Clc1ccc(C(Cn2ccnc2)OCc2ccsc2Cl)c(Cl)c1 (configuration not stated) [TIOCONAZOLE] | < 4.70 | > 20 µM
24 | CC[N+](CC)(CC)CCC(O)(c1ccccc1)C1CCCCC1 (configuration not stated) [TRIDIHEXETHYL] | < 4.70 | > 20 µM

Row | SMILES | pIC50 | IC50
25 | CCn1nc(C(=O)O)c(=O)c2cc3c(cc21)OCO3 [CINOXACIN] | < 4.70 | > 20 µM
26 | N=C(N)NCC1COc2ccccc2O1 (configuration not stated) [GUANOXAN] | < 4.70 | > 20 µM
27 | C[C@H](CCC(=O)NCC(=O)O)[C@H]1CC[C@H]2[C@@H]3[C@H](O)C[C@@H]4C[C@H](O)CC[C@]4(C)[C@H]3C[C@H](O)[C@]12C [GLYCOCHOLIC ACID] | < 4.70 | > 20 µM
28 | C[C@]12N[C@H](Cc3ccccc31)c1ccccc12 [DIZOCILPINE] | < 4.70 | > 20 µM
29 | CC[C@H]1CN2CCc3cc(OC)c(OC)cc3[C@@H]2C[C@@H]1C[C@H]1NCCc2cc(OC)c(OC)cc21 [EMETINE] | < 4.70 | > 20 µM
30 | O=C(C[n+]1ccn(CC(OCc2ccc(Cl)cc2Cl)c2ccc(Cl)cc2Cl)c1)c1ccc(F)cc1 (configuration not stated) [FLUDAZONIUM] | < 4.70 | > 20 µM
31 | CC(CCC(=O)O)C1CCC2C3C(=O)CC4CC(=O)CCC4(C)C3CC(=O)C12C (configuration not stated) | < 4.70 | > 20 µM
32 | C[C@@H](N)C12CC3CC(CC(C3)C1)C2 | < 4.70 | > 20 µM
33 | CS(=N)(=O)CC[C@H](N)C(=O)O (some centres not stated) | < 4.70 | > 20 µM
34 | N[C@H](Cc1ccc(F)cc1)C(=O)O | < 4.70 | > 20 µM
35 | CN[C@@H](C)CC1CCCCC1 [LEVOPROPYLHEXEDRINE] | < 4.70 | > 20 µM
36 | CC[N+](C)(C)c1cccc(O)c1 [EDROPHONIUM] | < 4.70 | > 20 µM
37 | N[C@@H]1CC[C@@H](c2ccc(Cl)c(Cl)c2)c2ccccc21 [DASOTRALINE] | < 4.70 | > 20 µM
38 | CC(=O)[C@H]1CC[C@H]2[C@@H]3CC=C4C[C@@H](OS(=O)(=O)O)CC[C@]4(C)[C@H]3CC[C@]12C | < 4.70 | > 20 µM
39 | c1ccc2nc(N3CCNCC3)ccc2c1 [QUIPAZINE] | < 4.70 | > 20 µM
40 | CN1C(=O)CC(=O)N(c2ccccc2)c2cc(Cl)ccc21 [CLOBAZAM] | < 4.70 | > 20 µM
41 | CCCC(C)C1(CC)C(=O)NC(=S)NC1=O (configuration not stated) [THIOPENTAL] | < 4.70 | > 20 µM
42 | CC/C(=C(\c1ccccc1)c1ccc(OCCN(C)C)cc1)c1ccccc1 [TAMOXIFEN] | < 4.70 | > 20 µM
43 | CCOCC(O)COc1ccc(NC(=O)CC[S+](C)C)cc1 (configuration not stated) | < 4.70 | > 20 µM
44 | O=C(Nc1ccc(Oc2ccc(Cl)cc2)c(Cl)c1)c1cc(I)cc(I)c1O [RAFOXANIDE] | < 4.70 | > 20 µM
45 | CC(C)C(=O)c1c(C(C)C)nn2ccccc12 [IBUDILAST] | < 4.70 | > 20 µM
46 | CS(=O)(=O)Nc1cc2occ(NC=O)c(=O)c2cc1Oc1ccccc1 [IGURATIMOD] | < 4.70 | > 20 µM
47 | Oc1cc2c(cc1O)[C@@H]1c3ccc(O)c(O)c3OC[C@]1(O)C2 [HEMATOXYLIN] | < 4.70 | > 20 µM
48 | CN(C)CCCO[C@@H]1[C@H]2OC(C)(C)O[C@H]2O[C@@H]1[C@H](O)CO [AMIPRILOSE] | < 4.70 | > 20 µM

Row | SMILES | pIC50 | IC50
49 | CCC(O)(COC(N)=O)c1ccccc1 (configuration not stated) [HYDROXYPHENAMATE] | < 4.70 | > 20 µM
50 | O=C1C=CC(=O)c2c(O)cccc21 [JUGLONE] | < 4.70 | > 20 µM
51 | C[C@]12CCC(=O)C(O)=C1CC[C@@H]1[C@@H]2CC[C@]2(C)C(=O)CC[C@@H]12 [FORMESTANE] | < 4.70 | > 20 µM
52 | O=C(O)C(Cl)Cl [DICHLOROACETIC ACID] | < 4.70 | > 20 µM
53 | COc1ccnc2[nH]cc(C(=O)C(=O)N3CCN(C(=O)c4ccccc4)C[C@H]3C)c12 | < 4.70 | > 20 µM
54 | CC(=O)[C@H]1CC[C@H]2[C@@H]3CC=C4C[C@@H](O)CC[C@]4(C)[C@H]3CC[C@]12C [PREGNENOLONE] | < 4.70 | > 20 µM
55 | N[C@@]1(C(=O)O)CC[C@H]2[C@H](C(=O)O)[C@H]21 | < 4.70 | > 20 µM
56 | CN1C(=O)NC(=O)C(C)(C2=CCCCC2)C1=O (configuration not stated) [HEXOBARBITAL] | < 4.70 | > 20 µM
57 | Cc1ccc(N(CC2=NCCN2)c2cccc(O)c2)cc1 [PHENTOLAMINE] | < 4.70 | > 20 µM
58 | O=[N+]([O-])c1cccc2cn[nH]c12 [7-NITROINDAZOLE] | < 4.70 | > 20 µM
59 | COc1ccc(/C=C/C(=O)O)cc1OC | < 4.70 | > 20 µM
60 | C[C@]1(c2nc3c(C(N)=O)cccc3[nH]2)CCCN1 [VELIPARIB] | < 4.70 | > 20 µM
61 | C[C@]12C[C@H]3S[C@H]3C[C@@H]1CC[C@@H]1[C@@H]2CC[C@]2(C)[C@@H](O)CC[C@@H]12 [EPITIOSTANOL] | < 4.70 | > 20 µM
62 | CN1CC[C@]23CCCC[C@H]2[C@H]1Cc1ccc(O)cc13 [LEVORPHANOL] | < 4.70 | > 20 µM
63 | COc1ccc(C(=O)NC2(C(=O)O)Cc3ccccc3C2)cc1OCCc1cccc(C)c1 [FIPAXALPARANT] | < 4.70 | > 20 µM
64 | CO[C@H]1/C=C\C=C(\C)C(=O)NC2=CC(=O)C(NCCN(C)C)=C(C[C@@H](C)C[C@H](OC)[C@H](O)[C@@H](C)/C=C(/C)[C@@H]1OC(N)=O)C2=O | < 4.70 | > 20 µM
65 | CC[C@H](OC(C)=O)C(C[C@@H](C)N(C)C)(c1ccccc1)c1ccccc1 [BETACETYLMETHADOL] | < 4.70 | > 20 µM
66 | O=C1C2CC3CC1CC(O)(C3)C2 [IDRAMANTONE] | < 4.70 | > 20 µM
67 | COc1ccc2c(c1OC)C13CCN(C)C(C2)C1(O)CCC(O)C3 (configuration not stated) | < 4.70 | > 20 µM
68 | CCNC(=O)c1noc(-c2cc(C(C)C)c(O)cc2O)c1-c1ccc(CN2CCOCC2)cc1 [LUMINESPIB] | < 4.70 | > 20 µM
69 | Nc1nc(OC(c2ccc(-c3cccc(F)c3)cc2)C(F)(F)F)cc(-c2ccc(C[C@H](N)C(=O)O)cc2)n1 (some centres not stated) | < 4.70 | > 20 µM
70 | NC(=O)NC(=O)Cc1ccccc1 [PHENACEMIDE] | < 4.70 | > 20 µM
71 | CC(C)(C(=O)O)c1ccc(C(O)CCCN2CCC(C(O)(c3ccccc3)c3ccccc3)CC2)cc1 (configuration not stated) [FEXOFENADINE] | < 4.70 | > 20 µM
